Reference: patent publication US20100092526A1, “NANOEMULSION THERAPEUTIC COMPOSITIONS AND METHODS OF USING THE SAME” (NanoBio Corporation, priority 2008, published 2010)
In brackets after ≈: the same amount, converted by molar mass. Read-outs that look alike come from different tables or passages of the source.

Legend:
[1] = system: Burkholderia cenocepacia; assay: MIC/MBC against CF isolates (CLSI, alamar blue); conditions: Burkholderia cenocepacia
[2] = system: Stenotrophomonas maltophilia; assay: MIC/MBC against CF isolates (CLSI, alamar blue); conditions: Stenotrophomonas maltophilia
[3] = system: Pseudomonas aeruginosa; assay: MIC/MBC against CF isolates (CLSI, alamar blue)
[4] = system: Acinetobacter baumannii; assay: MIC/MBC against clinical isolates (CLSI, alamar blue); conditions: Acinetobacter baumannii
[5] = CF Stenotrophomonas isolate NB41
[6] = CF Stenotrophomonas isolate NB42
[7] = CF Stenotrophomonas isolate NB43
[8] = CF Stenotrophomonas isolate NB44
[9] = CF Stenotrophomonas isolate NB45
[10] = CF Stenotrophomonas isolate Steno 1
[11] = CF Stenotrophomonas isolate Steno 2
[12] = CF Stenotrophomonas isolate Steno 3
[13] = CF Stenotrophomonas isolate Steno 4
[14] = CF Stenotrophomonas isolate Steno 6
[15] = CF Stenotrophomonas isolate Steno 8
[16] = Pseudomonas aeruginosa, CF Pseudomonas isolate NB1
[17] = Pseudomonas aeruginosa, CF Pseudomonas isolate NB2
[18] = Pseudomonas aeruginosa, CF Pseudomonas isolate NB3
[19] = Pseudomonas aeruginosa, CF Pseudomonas isolate NB4
[20] = Pseudomonas aeruginosa, CF Pseudomonas isolate NB5
[21] = Pseudomonas aeruginosa, CF Pseudomonas isolate NB6
[22] = Pseudomonas aeruginosa, CF Pseudomonas isolate NB7
[23] = Pseudomonas aeruginosa, CF Pseudomonas isolate NB8
[24] = Pseudomonas aeruginosa, CF Pseudomonas isolate NB9
[25] = Pseudomonas aeruginosa, CF Pseudomonas isolate NB10
[26] = Pseudomonas aeruginosa, CF Pseudomonas isolate NB11
[27] = Pseudomonas aeruginosa, CF Pseudomonas isolate NB12
[28] = Pseudomonas aeruginosa, CF Pseudomonas isolate NB13
[29] = Pseudomonas aeruginosa, CF Pseudomonas isolate NB14
[30] = Pseudomonas aeruginosa, CF Pseudomonas isolate NB15
[31] = Pseudomonas aeruginosa, CF Pseudomonas isolate NB16
[32] = Pseudomonas aeruginosa, CF Pseudomonas isolate NB17
[33] = Pseudomonas aeruginosa, CF Pseudomonas isolate NB18
[34] = Pseudomonas aeruginosa, CF Pseudomonas isolate NB19
[35] = Pseudomonas aeruginosa, CF Pseudomonas isolate NB20

CO[C@@]1(NC(=O)Cc2cccs2)C(=O)N2C(C(=O)O)=C(COC(N)=O)CS[C@@H]21 [Cefoxitin]
MIC90 [1]: 256 µg/mL (≈ 599 µM)
MIC50 ([1]; 10 CF Burkholderia isolates): 128 µg/mL (≈ 299 µM)
MBC ([1]; CF Burkholderia isolate NB21): > 256 µg/mL
MIC ([1]; CF Burkholderia isolate NB21): 256 µg/mL (≈ 599 µM)
MBC ([1]; CF Burkholderia isolate NB22): 256 µg/mL (≈ 599 µM)
MIC ([1]; CF Burkholderia isolate NB22): 128 µg/mL (≈ 299 µM)
MBC ([1]; CF Burkholderia isolate NB23): > 256 µg/mL
MIC ([1]; CF Burkholderia isolate NB23): > 256 µg/mL
MBC ([1]; CF Burkholderia isolate NB24): > 256 µg/mL
MIC ([1]; CF Burkholderia isolate NB24): 128 µg/mL (≈ 299 µM)
MBC ([1]; CF Burkholderia isolate NB25): 256 µg/mL (≈ 599 µM)
MIC ([1]; CF Burkholderia isolate NB25): 128 µg/mL (≈ 299 µM)
MBC ([1]; CF Burkholderia isolate NB26): 256 µg/mL (≈ 599 µM)
MIC ([1]; CF Burkholderia isolate NB26): 128 µg/mL (≈ 299 µM)
MBC ([1]; CF Burkholderia isolate NB27): > 256 µg/mL
MIC ([1]; CF Burkholderia isolate NB27): 128 µg/mL (≈ 299 µM)
MBC ([1]; CF Burkholderia isolate NB28b): 16 µg/mL (≈ 37.4 µM)
MIC ([1]; CF Burkholderia isolate NB28b): 16 µg/mL (≈ 37.4 µM)
MBC ([1]; CF Burkholderia isolate NB29): > 256 µg/mL
MIC ([1]; CF Burkholderia isolate NB29): 256 µg/mL (≈ 599 µM)
MBC ([1]; CF Burkholderia isolate NB30): 128 µg/mL (≈ 299 µM)
MIC ([1]; CF Burkholderia isolate NB30): 128 µg/mL (≈ 299 µM)
MIC50 [2]: > 256 µg/mL
MIC90 [2]: > 256 µg/mL
MBC [2, 5]: > 256 µg/mL
MIC [2, 5]: > 256 µg/mL
MBC [2, 6]: > 256 µg/mL
MIC [2, 6]: > 256 µg/mL
MBC [2, 7]: > 256 µg/mL
MIC [2, 7]: > 256 µg/mL
MBC [2, 8]: > 256 µg/mL
MIC [2, 8]: 256 µg/mL (≈ 599 µM)
MBC [2, 9]: > 256 µg/mL
MIC [2, 9]: > 256 µg/mL
MBC [2, 10]: > 256 µg/mL
MIC [2, 10]: > 256 µg/mL
MBC [2, 11]: > 256 µg/mL
MIC [2, 11]: > 256 µg/mL
MBC [2, 12]: > 256 µg/mL
MIC [2, 12]: 256 µg/mL (≈ 599 µM)
MBC [2, 13]: 256 µg/mL (≈ 599 µM)
MIC [2, 13]: 256 µg/mL (≈ 599 µM)
MBC [2, 14]: 256 µg/mL (≈ 599 µM)
MIC [2, 14]: 128 µg/mL (≈ 299 µM)
MBC [2, 15]: > 256 µg/mL
MIC [2, 15]: > 256 µg/mL
MBC ([2]; read-out: MBC 50, 11 CF Stenotrophomonas isolates): > 256 µg/mL
MBC 90 ([3]; 20 CF Pseudomonas isolates): >256 µg/mL
MIC50 ([3]; Pseudomonas aeruginosa): > 256 µg/mL
MIC90 ([3]; Pseudomonas aeruginosa): > 256 µg/mL
MBC [3, 16]: > 256 µg/mL
MIC [3, 16]: > 256 µg/mL
MBC [3, 17]: > 256 µg/mL
MIC [3, 17]: > 256 µg/mL
MBC [3, 18]: > 256 µg/mL
MIC [3, 18]: > 256 µg/mL
MBC [3, 19]: > 256 µg/mL
MIC [3, 19]: > 256 µg/mL
MBC [3, 20]: > 256 µg/mL
MIC [3, 20]: > 256 µg/mL
MBC [3, 21]: > 256 µg/mL
MIC [3, 21]: > 256 µg/mL
MBC [3, 22]: > 256 µg/mL
MIC [3, 22]: > 256 µg/mL
MBC [3, 23]: > 256 µg/mL
MIC [3, 23]: > 256 µg/mL
MBC [3, 24]: > 256 µg/mL
MIC [3, 24]: > 256 µg/mL
MBC [3, 25]: > 256 µg/mL
MIC [3, 25]: > 256 µg/mL
MBC [3, 26]: > 256 µg/mL
MIC [3, 26]: > 256 µg/mL
MBC [3, 27]: > 256 µg/mL
MIC [3, 27]: > 256 µg/mL
MBC [3, 28]: > 256 µg/mL
MIC [3, 28]: > 256 µg/mL
MBC [3, 29]: > 256 µg/mL
MIC [3, 29]: > 256 µg/mL
MBC [3, 30]: > 256 µg/mL
MIC [3, 30]: > 256 µg/mL
MBC [3, 31]: > 256 µg/mL
MIC [3, 31]: > 256 µg/mL
MBC [3, 32]: > 256 µg/mL
MIC [3, 32]: > 256 µg/mL
MBC [3, 33]: > 256 µg/mL
MIC [3, 33]: > 256 µg/mL
MBC [3, 34]: > 256 µg/mL
MIC [3, 34]: > 256 µg/mL
MBC [3, 35]: > 256 µg/mL
MIC [3, 35]: > 256 µg/mL
MBC ([3]; Pseudomonas aeruginosa, read-out: MBC 50, 20 CF Pseudomonas isolates): > 256 µg/mL
MBC ([3]; Pseudomonas aeruginosa, read-out: MBC 50, second MBC 50 line of the summary, Stenotrophomonas, values equal those of the CF Pseudomonas isolates): > 256 µg/mL
MIC50 [4]: > 256 µg/mL
MIC90 [4]: > 256 µg/mL
MBC ([4]; Acinetobacter isolate NB31): > 256 µg/mL
MIC ([4]; Acinetobacter isolate NB31): > 256 µg/mL
MBC ([4]; Acinetobacter isolate NB32): 256 µg/mL (≈ 599 µM)
MIC ([4]; Acinetobacter isolate NB32): 256 µg/mL (≈ 599 µM)
MBC ([4]; Acinetobacter isolate NB33): > 256 µg/mL
MIC ([4]; Acinetobacter isolate NB33): > 256 µg/mL
MBC ([4]; Acinetobacter isolate NB34): > 256 µg/mL
MIC ([4]; Acinetobacter isolate NB34): > 256 µg/mL
MBC ([4]; Acinetobacter isolate NB35): > 256 µg/mL
MIC ([4]; Acinetobacter isolate NB35): > 256 µg/mL
MBC ([4]; Acinetobacter isolate NB36): 128 µg/mL (≈ 299 µM)
MIC ([4]; Acinetobacter isolate NB36): 128 µg/mL (≈ 299 µM)
MBC ([4]; Acinetobacter isolate NB37): > 256 µg/mL
MIC ([4]; Acinetobacter isolate NB37): > 256 µg/mL
MBC ([4]; Acinetobacter isolate NB38): > 256 µg/mL
MIC ([4]; Acinetobacter isolate NB38): > 256 µg/mL
MBC ([4]; Acinetobacter isolate NB39): > 256 µg/mL
MIC ([4]; Acinetobacter isolate NB39): > 256 µg/mL
MBC ([4]; Acinetobacter isolate NB40): > 256 µg/mL
MIC ([4]; Acinetobacter isolate NB40): > 256 µg/mL
MBC ([4]; read-out: MBC 50, 10 Acinetobacter isolates): > 256 µg/mL

CCN1CCN(C(=O)N[C@@H](C(=O)N[C@@H]2C(=O)N3[C@@H]2SC(C)(C)[C@@H]3C(=O)O)c2ccccc2)C(=O)C1=O [Pipercillin]
MBC ([3]; CF Pseudomonas isolate NB1): 1024 µg/mL (≈ 1980 µM)
MIC ([3]; CF Pseudomonas isolate NB1): 1024 µg/mL (≈ 1980 µM)
MBC ([3]; CF Pseudomonas isolate NB2): 128 µg/mL (≈ 247 µM)
MIC ([3]; CF Pseudomonas isolate NB2): 128 µg/mL (≈ 247 µM)
MBC ([3]; CF Pseudomonas isolate NB3): >1024 µg/mL
MIC ([3]; CF Pseudomonas isolate NB3): >1024 µg/mL
MBC ([3]; CF Pseudomonas isolate NB4): 1024 µg/mL (≈ 1980 µM)
MIC ([3]; CF Pseudomonas isolate NB4): 512 µg/mL (≈ 989 µM)
MBC ([3]; CF Pseudomonas isolate NB5): >1024 µg/mL
MIC ([3]; CF Pseudomonas isolate NB5): >1024 µg/mL
MBC ([3]; CF Pseudomonas isolate NB6): >1024 µg/mL
MIC ([3]; CF Pseudomonas isolate NB6): 1024 µg/mL (≈ 1980 µM)
MBC ([3]; CF Pseudomonas isolate NB7): 1024 µg/mL (≈ 1980 µM)
MIC ([3]; CF Pseudomonas isolate NB7): 512 µg/mL (≈ 989 µM)
MBC ([3]; CF Pseudomonas isolate NB8): >1024 µg/mL
MIC ([3]; CF Pseudomonas isolate NB8): >1024 µg/mL
MBC ([3]; CF Pseudomonas isolate NB9): >1024 µg/mL
MIC ([3]; CF Pseudomonas isolate NB9): 512 µg/mL (≈ 989 µM)
MBC ([3]; CF Pseudomonas isolate NB10): 512 µg/mL (≈ 989 µM)
MIC ([3]; CF Pseudomonas isolate NB10): 256 µg/mL (≈ 495 µM)
